Experimental data as given in the supplement of paper PMC10307832.

What was measured:
Test in all cases: relative viability (nuclei count vs DMSO), 5 days (fraction); higher = more cells survive
[1] = compound: C=CCn1c(=O)c2cnc(Nc3ccc(N4CCN(C)CC4)cc3)nc2n1-c1cccc(C(C)(C)O)n1 [Adavosertib] + N=C(N)NC(=N)NCCc1ccccc1 [Phenformin] (partner 250 µM)
How it was run: (§1)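 Relative viability equals treated-well nuclei counts divided by vehicle-well nuclei counts. Counts came from 4× images of lung cancer cell lines grown in 1536-well plates for 5 days after pin-tool dosing on the day after seeding. Dosing used one drug alone or a fixed anchor-drug dose plus five library-drug doses (not always all listed) in √10 steps, and values are medians of duplicate plates.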

[2] = compound: COc1nc(N)nc2c1ncn2[C@@H]1O[C@H](CO)[C@@H](O)[C@@H]1O [Nelarabine] + Cc1cc(Nc2cc(N3CCN(C)CC3)nc(Sc3ccc(NC(=O)C4CC4)cc3)n2)n[nH]1 [Tozasertib] (partner 0.1 µM)
How it was run: as §1

[3] = compound: C=CCn1c(=O)c2cnc(Nc3ccc(N4CCN(C)CC4)cc3)nc2n1-c1cccc(C(C)(C)O)n1 [Adavosertib] + Cc1nc(NC(=O)N2CCC[C@H]2C(N)=O)sc1-c1ccnc(C(C)(C)C(F)(F)F)c1 [Alpelisib] (partner 2 µM)
How it was run: as §1

[4] = compound: COc1nc(N)nc2c1ncn2[C@@H]1O[C@H](CO)[C@@H](O)[C@@H]1O [Nelarabine] + N=C(N)NC(=N)NCCc1ccccc1 [Phenformin] (partner 250 µM)
How it was run: as §1

EMC-BAC-2
relative viability ([1]; first compound 0.01 µM): 0.547 | relative viability ([1]; first compound 0.03162 µM): 0.557 | relative viability ([1]; first compound 0.1 µM): 0.519 | relative viability ([1]; first compound 0.3162 µM): 0.479 | relative viability ([2]; first compound 0.01 µM): 0.307 | relative viability ([2]; first compound 0.03162 µM): 0.236 | relative viability ([2]; first compound 0.1 µM): 0.277 | relative viability ([2]; first compound 0.3162 µM): 0.239 | relative viability ([2]; first compound 1 µM): 0.297 | relative viability ([3]; first compound 0.01 µM): 0.736 | relative viability ([3]; first compound 0.03162 µM): 0.737 | relative viability ([3]; first compound 0.1 µM): 0.722 | relative viability ([3]; first compound 0.3162 µM): 0.678 | relative viability ([4]; first compound 0.01 µM): 0.587 | relative viability ([4]; first compound 0.03162 µM): 0.463 | relative viability ([4]; first compound 0.1 µM): 0.493 | relative viability ([4]; first compound 0.3162 µM): 0.517 | relative viability ([4]; first compound 1 µM): 0.539
